In patent US7381537B2, “Use of inhibitors of glutaminyl cyclases for treatment and prevention of disease” (Probiodrug AG, priority 2003, dated 2008):
“Also recorded” adds a separate entry of the source. Ends that are not written are not given here.

What was measured:
[1] = tested on: DP IV and QC; experiment: Consecutive catalysis of DP IV and QC, crude porcine pituitary homogenate with added DPIV, MALDI-TOF; format: biochemical
Method: (§1) Matrix-assisted laser desorption/ionization mass spectrometry was carried out using the Hewlett-Packard G2025 LD-TOF System with a linear time of flight analyzer. […] Samples (5 μl) were mixed with equal volumes of the matrix solution. For matrix solution we used DHAP/DAHC, prepared by solving 30 mg 2′,6′-dihydroxyacetophenone (Aldrich) and 44 mg diammonium hydrogen citrate (Fluka) in 1 ml acetonitrile/0.1% TFA in water (1/1, v/v). A small volume (=1 μl) of the matrix-analyte-mixture was transferred to a probe tip and immediately evaporated in a vacuum chamber (Hewlett-Packard G2024A sample prep accessory) to ensure rapid and homogeneous sample crystallization.

[2] = tested on: Glutaminyl cyclase present in the homogenate of porcine pituitary; experiment: Formation of [pGlu^3]Aβ3-11a by QC in porcine pituitary homogenate, MALDI-TOF; format: biochemical; conditions: 2 mM 1,10-phenanthroline
Method: as §1
In case of Aβ3-21a, the assays contained 1% DMSO. At different times, samples were removed from the assay tube, peptides extracted using ZipTips (Millipore) according to the manufacturer's recommendations, mixed with matrix solution (1:1 v/v) and subsequently the mass spectra recorded.

[3] = tested on: mammalian QC; conditions: Busby et al. 1987; cited from earlier work
[4] = target: T1, QC (Homo sapiens, UniProt Q16769); experiment: Inhibition and inactivation of human QC by chelators; format: biochemical; parameters: The cDNA of the mature QC starting with codon 38 was fused in frame with the plasmid encoded 6×histidine tag; 6xHis; made in house; host or cells: Pichia pastoris X33 (pPICZαB); also E. coli M15 (pQE-31)
[5] = target: T1, QC; experiment: Reactivation of inactivated human QC with metal ions; format: biochemical; parameters: The cDNA of the mature QC starting with codon 38 was fused in frame with the plasmid encoded 6×histidine tag; 6xHis; made in house; host or cells: Pichia pastoris X33 (pPICZαB); also E. coli M15 (pQE-31); conditions: 0.5 mM metal ion in presence of 0.5 mM EDTA
Method: Subsequently, the enzyme was subjected to dialysis against 50 mM Bis-Tris, pH 6.8, containing 1.0 mM EDTA. Reactivation of the enzymes was achieved by incubation of the inactivated enzyme sample with metal ions at a concentration of 0.5 mM, in presence of 0.5 mM EDTA in order to avoid an unspecific reactivation by traces of metal ions present in buffer solutions. Controls are given by enzyme samples that were not inactivated, but also dialyzed against EDTA solution as the inactivated enzyme (+EDTA) and enzyme samples that were dialyzed against buffer solutions without added EDTA (−EDTA).

[6] = Solubility of substrates in aqueous solution

T1 sequence (Q16769 29-361): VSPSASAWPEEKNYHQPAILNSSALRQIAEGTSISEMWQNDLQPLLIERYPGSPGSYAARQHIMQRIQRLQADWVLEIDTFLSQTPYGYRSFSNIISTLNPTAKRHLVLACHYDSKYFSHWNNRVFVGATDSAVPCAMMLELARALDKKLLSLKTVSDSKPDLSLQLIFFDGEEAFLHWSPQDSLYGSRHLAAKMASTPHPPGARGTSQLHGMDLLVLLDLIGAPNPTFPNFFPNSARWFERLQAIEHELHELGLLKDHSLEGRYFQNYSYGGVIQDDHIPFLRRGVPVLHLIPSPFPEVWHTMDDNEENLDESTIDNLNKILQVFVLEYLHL

c1cnc2c(c1)ccc1cccnc12 [1,10-phenanthroline]
[pGlu^3]Aβ3-11a formation from [Gln^3]Aβ1-11a in presence of catalytically active DP IV and QC [1]: not formed; also recorded: inhibition
inhibition of formation of [pGlu^3]Aβ3-11a from [Gln^3]Aβ3-11a [2]: inhibited; also recorded: inhibition
inhibition of a mammalian QC [3]: Inhibition
inhibition of human QC catalyzed substrate cyclization ([4]; competitive and time-dependent for the chelators): inhibited; also recorded: reduced enzymatic activity
inactivation of human QC after extensive dialysis ([4]; dialysis against 5 mM): almost completely inactivated

O=S(=O)([O-])[O-].[Zn+2] [ZnSO4]
restoration of QC activity after inactivation [5]: Near-total restoration

QFRHDSGYE-NH2 [[Gln^3]Aβ3-11a]
solubility in aqueous solution [6]: better
